Results on three compounds are retold here after PubChem BioAssay (NCI).

Test systems include SR leukemia; LOX IMVI melanoma; OVCAR-8 ovarian; HCT-15 colon; A498 renal; UACC-257 melanoma; CCRF-CEM leukemia; SK-MEL-5 melanoma; HOP-62 NSCLC; A549 NSCLC; SF-539 CNS; HCC-2998 colon; NCI-H460 lung; SK-MEL-28 melanoma; RXF 393 renal; M14 melanoma; COLO 205 colon; NCI-H226 lung.
Holding throughout (test): DTP human tumour cell line panel, 48 h

Where “and” joins values, the source holds several entries; their conditions need not be identical. Identical values can stand only once.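 The compound was tested at five concentrations on cells cultured in 96-well plates, with a 48-hour exposure period. The concentration for 50% growth inhibition is given as GI50. TGI marks complete inhibition of growth.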

Regarding `Cc1c2cc[n+](C)cc2c(C)c2c1[nH]c1ccccc12`, the total growth inhibition concentration (TGI) is greater than 100 µM in the assay with SR leukemia; 48.3 µM and 27.4 µM with LOX IMVI melanoma; 27.4 µM and 18.1 µM in the assay on OVCAR-8 ovarian; > 100 µM and 99 µM with HCT-15 colon; 68.7 µM and 53.5 µM with A498 renal; 37.5 µM and 43.2 µM in the assay with UACC-257 melanoma. Further, the concentration for total growth inhibition (TGI) in the assay with CCRF-CEM leukemia is 41.9 µM and 35.3 µM; with SK-MEL-5 melanoma, 5.92 µM and 4.85 µM; with HOP-62 NSCLC it was 2.64 µM and 2.76 µM; in the assay on A549 NSCLC it was 5.55 µM and 8.83 µM; in the assay on SF-539 CNS, 2.85 µM and 2.93 µM; in the assay on HCC-2998 colon it was 12.6 µM and 12.9 µM. Further, the TGI with NCI-H460 lung was 12.3 µM and 11.8 µM; in the assay with SK-MEL-28 melanoma, 4.83 µM and 7.1 µM; in the assay with RXF 393 renal it was 62 µM and 36.7 µM; with M14 melanoma, greater than 100 µM; with COLO 205 colon, 4.57 µM and 3.37 µM; with NCI-H226 lung, 1.7 µM and 1.61 µM. Besides, in the assay with HCT-15 colon, the GI50 is 88 µM and 19.4 µM.

Turning to `Nc1nc(N)c2ncn(CC(CO)CC(c3ccccc3)P(=O)(O)O)c2n1` (stereo unspecified), the GI50 with SR leukemia is > 100 µM and 35 µM. In addition, the total growth inhibition concentration (TGI) in the assay on SR leukemia, in the assay on LOX IMVI melanoma, in the assay on OVCAR-8 ovarian, with HCT-15 colon, in the assay with A498 renal and in the assay with UACC-257 melanoma was greater than 100 µM each time. Besides, the TGI in the assay with CCRF-CEM leukemia, in the assay on SK-MEL-5 melanoma, with HOP-62 NSCLC, in the assay on A549 NSCLC, in the assay with SF-539 CNS and in the assay with HCC-2998 colon was greater than 100 µM throughout. The TGI is greater than 100 µM with NCI-H460 lung; greater than 100 µM with SK-MEL-28 melanoma; greater than 100 µM in the assay on RXF 393 renal; 10.4 µM in the assay on M14 melanoma; greater than 100 µM with COLO 205 colon; greater than 100 µM in the assay with NCI-H226 lung.

Consider `CCCCCCCCCC[C@@H](O)[C@@H]1CC[C@@H]([C@@H]2CC[C@@H]([C@@H](O)CCCCCCCCCCC(O)CC3=CC(C)OC3=O)O2)O1` (stereo partly specified), for which the TGI in the assay on SR leukemia is 6.45 µM; in the assay on LOX IMVI melanoma, greater than 10 µM; in the assay on OVCAR-8 ovarian, greater than 10 µM; in the assay with HCT-15 colon, greater than 10 µM; in the assay with A498 renal it was greater than 10 µM; in the assay on UACC-257 melanoma, greater than 10 µM. Further, the TGI is greater than 10 µM in the assay with CCRF-CEM leukemia; 2.92 µM in the assay with SK-MEL-5 melanoma; greater than 10 µM in the assay with HOP-62 NSCLC; greater than 10 µM in the assay with A549 NSCLC; greater than 10 µM in the assay on SF-539 CNS; greater than 10 µM in the assay on HCC-2998 colon. Besides, the total growth inhibition concentration (TGI) with NCI-H460 lung was greater than 10 µM; in the assay with SK-MEL-28 melanoma, greater than 10 µM; in the assay on RXF 393 renal it was greater than 10 µM; in the assay with M14 melanoma, greater than 10 µM; in the assay with COLO 205 colon it was greater than 10 µM; in the assay with NCI-H226 lung, 6.84 µM.
